Where two headings read alike, the source gives them in different places.
What was measured:
[1] = Viscosity and density of formate solutions in NaCl+CaCl2 brine; assay type: physicochemical; settings: solutions in the brine at 25, 50 and 75 °C over a wide range of shear rates
Protocol: Viscosity Measurements. […] A double wall couette geometry was used for the measurement. The viscosity measurements were taken at 25, 50, and 75° C. The sodium formate solutions were prepared and allowed to equilibrate in an oven set at the target temperature.
For viscosity measurements at 50 and 75° C., the temperature of the holding cup was raised to the target temperature using the circulating bath before putting the solution into the rheometer's sample holding cup.

[2] = near-saturated 45% (% w/w) sodium formate in water, 20 °C; cited from earlier work
[3] = 347 K
Protocol: Contact Angle Experiments. Contact angle experiments were performed on calcite surfaces and Eagle Ford shale plates. […] After cutting the plates in the appropriate sizes, they were polished with a diamond grinder to result in a smooth surface. […] The pH values of the chemical solutions were measured before and after the experiment. […] The final pH level was adjusted to correspond to the glycine solution at the same concentration. […] Then, to start the experiment, the rock pieces were immersed in the solution and then oil droplets were placed at the bottom of the rock pieces. The solution chambers were put in the oven for equilibration. Then, images of the oil droplets were taken. A new oil droplet was placed after a certain number of days and the images were taken after equilibration. Contact angles reported in figures are the equilibrium contact angles. For example, if data is reported from day 7, that data is the final equilibrated contact angle of the droplet placed on day 7. Contact angles were measured from photos with the on-screen protractor software.

[4] = 337 K
Protocol: Contact Angle Experiments. Contact angle experiments were performed on calcite surfaces and Eagle Ford shale plates. […] After cutting the plates in the appropriate sizes, they were polished with a diamond grinder to result in a smooth surface.
RB was made first by adding salts and adjusting the total mass of the solution to 1 kg with deionized water. […] The final pH level was adjusted to correspond to the glycine solution at the same concentration. […]
After being aged in heavy oil for at least 3 weeks, the calcite or shale pieces were retrieved, and the excess oil was removed from the surfaces carefully. Then, to start the experiment, the rock pieces were immersed in the solution and then oil droplets were placed at the bottom of the rock pieces. The solution chambers were put in the oven for equilibration. Then, images of the oil droplets were taken. A new oil droplet was placed after a certain number of days and the images were taken after equilibration. Contact angles reported in figures are the equilibrium contact angles. For example, if data is reported from day 7, that data is the final equilibrated contact angle of the droplet placed on day 7. Contact angles were measured from photos with the on-screen protractor software.
A similar procedure was followed for another set of experiments with Eagle Ford shale plates.

[5] = pH measurements before and after the contact angle experiments with calcite; assay type: physicochemical; settings: room temperature; for pH After: after contact angle experiment with calcite; for pH Before: before contact angle experiment
Protocol: RB was made first by adding salts and adjusting the total mass of the solution to 1 kg with deionized water. […] For solutions with HCl, HCl was added to solutions of formate and acetate at room temperature while stirring slowly. […] After aqueous solutions were prepared and degassed, they were placed in an oven at the desired reservoir temperature (347 K for calcite and 337 for Eagle Ford shale).

[6] = with RB at reservoir and room temperatures
[7] = room temperature; cited from earlier work

Row | Compound | rheological behavior [1] | reported viscosity [2] [cp] | contact angle reduction on calcite ([3]; without HCl, in RB) | final contact angle on Eagle Ford shale plates ([4]; 5 wt % in RB with HCl) | final contact angle on Eagle Ford shale plates ([4]; 5 wt % in RB without HCl) | pH After ([5]; 0.5 wt % in RB) | pH Before ([5]; 0.5 wt % in RB) | pH After ([5]; 1 wt % in RB) | pH Before ([5]; 1 wt % in RB) | pH After ([5]; 2.5 wt % in RB) | pH Before ([5]; 2.5 wt % in RB) | pH After ([5]; 5 wt % in RB) | pH Before ([5]; 5 wt % in RB) | aqueous stability [6] | contact angle on calcite ([3]; with HCl (pH adjusted to glycine level), in RB) | contact angle on calcite ([3]; without HCl, 0.5-5 wt % in RB) | contact angle on calcite ([3]; 2.5 and 5 wt % in RB, reached over time) [°] | isoelectric point (pI) [7]
1 | O=C[O-].[Na+] [sodium formate] | Newtonian behavior | 9.5 | – | – | – | – | – | – | – | – | – | – | – | – | – | – | – | –
2 | CC(=O)[O-].[Na+] [acetate, Sodium Acetate] | – | – | did not significantly reduce the contact angle | approximately 60 ° | about 80 ° | 8.04 | 8.15 | 7.89 | 8.31 | 7.87 | 8.44 | 7.85 | 8.64 | confirmed | – | – | – | –
3 | O=CO [formate] | – | – | – | approximately 60 ° | about 80 ° | 8.26 | 8.07 | 8.22 | 7.96 | 8.05 | 8.12 | 7.96 | 8.11 | confirmed | 50-60 ° | approximately 80 ° | – | –
4 | NCC(=O)O [glycine, reference compound] | – | – | – | – | 60 ° | 7.94 | 6.68 | 7.73 | 6.42 | 7.53 | 6.24 | 7.62 | 6.10 | – | – | – | ~40 | 5.97
